How the values were obtained:
hFAP (M39-A757) = hFAP (M39-A757) (Homo sapiens (Human), UniProt Q12884); assay: hFAP binding assay (surface plasmon resonance); details: SPR, 20° C.
Experimental: The hFAP protein used in the Examples was either commercially sourced or produced in insect cells as recombinant hFAP (Gp67-6HN-TEV-FAP (M39-A757), MW 89086.7 Da, or cd33-FAP (27-757)-6His, MW85926 Da).
Immobilization of hFAP (M39-A757) on a CMD200M sensor chip (Xantec) was performed using standard amine coupling procedure in immobilization buffer (10 mM HEPES, 150 mM NaCl, 0.05% Tween20, pH 7.4). The surface was washed with 10 mM NaOH, IM NaCl before being activated with EDC/NHS (GE Healthcare), followed by immobilization of hFAP (in 10 mM Acetate pH 5.0). Finally, the surface was deactivated by ethanolamine. Immobilization levels of hFAP were around 4000-6000 RU. The reference spot was treated as described, omitting the injection of hFAP. Compound concentration series were injected over the immobilized protein in increasing concentrations (2-500 nM) using single cycle kinetics in running buffer (20 mM TRIS, 150 mM NaCl, 0.05% Tween20, 1% DMSO, pH 7.4). Interaction models were fitted globally to the experimental traces, enabling determination of kon, koff and Kd.

FAP Cyno Plasma = FAP Cyno Plasma (Macaca fascicularis, UniProt A0A2K5VGH4); assay: FAP plasma inhibition assay, cynomolgus plasma; format: biochemical; details: cynomolgus plasma dilution 1:40
Experimental: Plasma (anticoagulant K2EDTA) was used as the enzyme source: Human plasma (Pooled from AZ Biobank), Mouse plasma (AZ AST Biobank), and Cynomolgus plasma (BioIVT, #NHP00PLK2FNN, lot CYN222895). 384-Well black fluotrack PS plates (Greiner 781076) were used. 20 μL diluted plasma (Cynomolgus and Human plasma dilution 1:40, Mouse plasma dilution 1:67) in buffer (PBS, 0.1% BSA) was added to 0.6 μL compounds (in DMSO). Compounds were tested using 10 CR, 3-fold dilution series from 500 nM FAC. Two replicates for each assay point were run on the same plate. A fluorescence blank read was taken before substrate addition. […] Plates were incubated for 40 min at rt in the dark. […] IC50 values were determined by plotting % inhibition versus log compound concentration.

hFAP (M39-A757), sequence (Q12884 39-757): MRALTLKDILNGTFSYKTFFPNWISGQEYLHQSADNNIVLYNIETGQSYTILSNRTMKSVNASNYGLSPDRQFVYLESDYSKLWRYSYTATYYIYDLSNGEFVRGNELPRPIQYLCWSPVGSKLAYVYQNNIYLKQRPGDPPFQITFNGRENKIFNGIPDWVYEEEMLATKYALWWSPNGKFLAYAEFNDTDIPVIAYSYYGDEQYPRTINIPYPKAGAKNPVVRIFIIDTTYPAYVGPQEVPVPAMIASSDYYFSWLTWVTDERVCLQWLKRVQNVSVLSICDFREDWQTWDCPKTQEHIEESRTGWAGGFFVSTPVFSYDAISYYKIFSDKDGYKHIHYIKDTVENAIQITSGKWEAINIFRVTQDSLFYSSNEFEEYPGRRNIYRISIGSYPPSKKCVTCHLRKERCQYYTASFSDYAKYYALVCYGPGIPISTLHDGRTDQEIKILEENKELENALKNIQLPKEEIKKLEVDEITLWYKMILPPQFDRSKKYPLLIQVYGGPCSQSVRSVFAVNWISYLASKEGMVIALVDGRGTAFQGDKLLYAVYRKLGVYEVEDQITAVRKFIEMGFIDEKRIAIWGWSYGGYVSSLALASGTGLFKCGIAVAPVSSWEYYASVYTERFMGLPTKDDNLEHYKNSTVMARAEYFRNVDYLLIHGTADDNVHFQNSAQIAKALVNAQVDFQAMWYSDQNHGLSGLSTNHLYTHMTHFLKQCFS
FAP Cyno Plasma, sequence (A0A2K5VGH4 1-745): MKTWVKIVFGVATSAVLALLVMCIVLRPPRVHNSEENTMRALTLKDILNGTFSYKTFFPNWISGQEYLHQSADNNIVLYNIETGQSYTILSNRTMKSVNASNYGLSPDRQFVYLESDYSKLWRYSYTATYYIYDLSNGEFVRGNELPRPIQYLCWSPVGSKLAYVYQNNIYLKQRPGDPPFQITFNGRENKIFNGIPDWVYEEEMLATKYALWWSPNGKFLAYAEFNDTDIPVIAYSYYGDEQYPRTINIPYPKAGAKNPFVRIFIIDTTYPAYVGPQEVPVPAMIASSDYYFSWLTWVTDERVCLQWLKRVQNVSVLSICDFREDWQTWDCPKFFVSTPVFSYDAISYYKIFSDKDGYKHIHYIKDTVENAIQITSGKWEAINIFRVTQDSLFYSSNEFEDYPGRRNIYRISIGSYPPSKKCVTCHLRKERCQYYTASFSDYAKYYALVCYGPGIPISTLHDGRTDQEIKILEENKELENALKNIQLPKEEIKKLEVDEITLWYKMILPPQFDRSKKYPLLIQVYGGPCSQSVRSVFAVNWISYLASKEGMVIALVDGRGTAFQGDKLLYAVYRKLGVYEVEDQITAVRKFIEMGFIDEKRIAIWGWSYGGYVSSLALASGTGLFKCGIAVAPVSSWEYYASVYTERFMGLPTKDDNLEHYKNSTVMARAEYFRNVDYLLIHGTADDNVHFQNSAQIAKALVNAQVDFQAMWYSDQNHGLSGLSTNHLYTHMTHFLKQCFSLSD

hFAP Binding assay k(off) (hFAP (M39-A757)): k(off) = 0.000046 1/s^3
hFAP Binding assay k(on) (hFAP (M39-A757)): k(on) = 4900000 M^−1s^−1
IC50 (FAP Cyno Plasma): 400 pM
Structure (SMILES): N#C[C@@H]1CSCN1C(=O)CNC(=O)c1ccnc2ccc(N3CCOCC3)cc12 [(R)—N-(2-(4-Cyanothiazolidin-3-yl)-2-oxoethyl)-6-morpholinoquinoline-4-carboxamide]

— patent US20250368637A1, “SOLID-STATE FORMS OF N-(2-(4-CYANOTHIAZOLIDIN-3-YL)-2-OXOETHYL)-6-MORPHOLINOQUINOLINE-4-CARBOXAMIDE” (AstraZeneca AB, priority 2022, published 2025)
